Reference: the supplement of paper PMC10307832

Assays:
Assay in all cases: relative viability (nuclei count vs DMSO), 5 days (fraction); higher = more cells survive
[1] = compound: CCC1=CN=CN=C1N2CCN(CC2)CC3=NC4=C(N3)C=C(C=C4)C(F)(F)F + CC1(C)CCC(c2ccc(Cl)cc2)=C(CN2CCN(c3ccc(C(=O)NS(=O)(=O)c4ccc(N[C@H](CCN5CCOCC5)CSc5ccccc5)c(S(=O)(=O)C(F)(F)F)c4)cc3)CC2)C1 [Navitoclax] (partner 0.5 µM)
How it was run: (§1)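 Relative viability is defined as nuclei in treated wells over nuclei in vehicle wells. Duplicate plates were run and medians reported. Lung cancer cell lines in 1536-well plates were dosed by pin tool one day after seeding, with one drug or with a fixed anchor-drug dose plus five library-drug doses (not always all listed) in √10 steps, and nuclei were counted after 5 days.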

[2] = compound: CCn1c(-c2nonc2N)nc2cnc(Oc3cccc(NC(=O)c4ccc(OCCN5CCOCC5)cc4)c3)cc21 + CCNC(=O)c1noc(-c2cc(C(C)C)c(O)cc2O)c1-c1ccc(CN2CCOCC2)cc1 [Luminespib] (partner 0.01 µM)
How it was run: as §1

[3] = compound: CCn1c(-c2nonc2N)nc2cnc(Oc3cccc(NC(=O)c4ccc(OCCN5CCOCC5)cc4)c3)cc21 + CS(=O)(=O)N1CCN(Cc2cc3nc(-c4cccc5[nH]ncc45)nc(N4CCOCC4)c3s2)CC1 [Pictilisib] (partner 1 µM)
How it was run: as §1

Cell Line | relative viability ([1]; first compound 0.04 µM) | relative viability ([1]; first compound 0.1265 µM) | relative viability ([1]; first compound 0.4 µM) | relative viability ([1]; first compound 1.265 µM) | relative viability ([1]; first compound 4 µM) | relative viability ([2]; first compound 0.04 µM) | relative viability ([2]; first compound 0.1265 µM) | relative viability ([2]; first compound 0.4 µM) | relative viability ([2]; first compound 1.265 µM) | relative viability ([2]; first compound 4 µM) | relative viability ([3]; first compound 0.04 µM) | relative viability ([3]; first compound 0.1265 µM) | relative viability ([3]; first compound 0.4 µM) | relative viability ([3]; first compound 1.265 µM) | relative viability ([3]; first compound 4 µM)
NCI-H1437 | 1.09 | 1 | 0.944 | 0.822 | 0.724 | 1.25 | 1.23 | 1.11 | 0.897 | 0.766 | 0.383 | 0.39 | 0.257 | 0.443 | 0.283
NCI-H1650 | 1.26 | 1.08 | 1.22 | 1.02 | 1.4 | 0.248 | 0.198 | 0.196 | 0.191 | 0.183 | 0.9 | 0.595 | 0.551 | 0.502 | 0.527
NCI-H1651 | 1.06 | 0.875 | 1.04 | 0.941 | 1.01 | 0.843 | 1.14 | 0.71 | 0.689 | 0.491 | 0.762 | 0.667 | 0.456 | 0.486 | 0.345
NCI-H1666 | 0.975 | 0.836 | 0.962 | 0.817 | 0.846 | 1.2 | 1.24 | 1.27 | 0.907 | 0.478 | 0.527 | 0.409 | 0.499 | 0.329 | 0.246
NCI-H1734 | 0.852 | 0.839 | 0.856 |  | 0.907 | 0.165 | 0.21 | 0.192 | 0.15 | 0.166 | 0.47 | 0.415 | 0.282 | 0.309 | 0.249
NCI-H1755 | 1.01 | 0.947 | 0.955 | 0.606 | 0.889 | 0.345 | 0.713 | 0.275 | 0.299 | 0.388 | 0.484 | 0.391 | 0.327 | 0.331 | 0.3
NCI-H1792 | 0.323 | 0.572 | 0.605 | 0.697 | 0.554 | 0.477 | 0.21 | 0.47 | 0.299 | 0.308 | 0.267 | 0.28 |  | 0.231 | 0.285
NCI-H1793 | 0.381 | 0.447 | 0.363 |  | 0.435 | 0.217 | 0.22 | 0.159 | 0.18 | 0.237 | 0.336 | 0.413 | 0.295 | 0.312 | 0.328
NCI-H1915 | 0.819 | 0.735 | 0.847 | 0.722 | 0.809 | 0.905 | 0.831 | 0.949 | 0.775 | 0.716 | 1.01 | 0.971 | 0.908 | 0.648 | 0.64
NCI-H1944 | 0.97 | 0.948 | 1 |  | 0.916 | 0.575 | 0.728 | 0.765 | 0.675 | 0.56 | 0.373 | 0.341 |  | 0.269 | 0.307
NCI-H1975 | 1.15 | 1.08 | 1.06 | 0.879 | 0.931 | 0.229 | 0.136 | 0.199 | 0.139 | 0.125 | 0.253 | 0.192 | 0.157 | 0.143 | 0.148
NCI-H1993 | 1.16 | 0.934 | 0.792 | 0.817 | 0.778 | 0.891 | 0.768 | 1.02 | 0.692 | 0.664 | 0.885 | 0.855 |  | 0.625 | 0.712
NCI-H2009 | 1.19 | 1.16 | 1.09 | 1.1 | 1.09 | 1 | 0.804 | 0.822 | 0.599 | 0.394 | 0.971 | 0.774 | 0.629 | 0.461 | 0.348
NCI-H2023 | 0.987 | 0.941 | 0.962 | 1.03 | 1.12 | 0.794 | 0.72 | 0.67 | 0.381 | 0.332 | 0.315 | 0.293 | 0.199 | 0.231 | 0.221
NCI-H2085 | 1.11 | 1.02 | 1.21 | 1.18 | 0.911 | 0.535 | 0.395 | 0.373 | 0.365 | 0.377 | 0.53 | 0.692 | 0.664 | 0.596 | 0.524
NCI-H2087 | 1.03 | 0.982 | 0.914 | 0.871 | 0.723 | 0.161 | 0.143 | 0.181 | 0.153 | 0.143 |  | 1.07 | 0.981 | 0.881 | 0.785
NCI-H2126 | 0.818 | 0.818 | 0.839 | 0.794 | 0.867 | 1.06 | 0.903 | 0.776 |  | 0.635 | 0.568 | 0.525 | 0.461 | 0.567 | 0.649
NCI-H2170 | 0.561 | 0.69 | 0.534 | 0.608 | 0.608 | 0.344 | 0.453 | 0.926 | 0.478 | 0.474 | 0.279 | 0.27 | 0.229 | 0.247 | 0.258
NCI-H2228 | 0.996 | 0.847 | 0.979 | 0.888 | 0.747 | 0.118 | 0.109 | 0.133 | 0.162 | 0.124 | 0.607 | 0.3 | 0.229 | 0.605 | 0.254
NCI-H2347 | 0.711 | 0.733 | 0.783 | 0.665 | 0.729 | 0.399 | 0.451 | 0.599 | 0.283 | 0.302 | 0.94 | 0.648 | 1.05 | 0.556 | 0.563
NCI-H2405 | 0.86 | 0.937 | 0.834 |  | 0.997 | 0.735 | 0.49 | 0.219 | 0.217 | 0.214 | 0.454 | 0.23 | 0.15 | 0.261 | 0.171
NCI-H3122 | 1.02 | 0.996 | 0.997 | 0.987 | 1.03 | 0.0608 | 0.0978 | 0.0882 | 0.0945 | 0.0955 | 0.879 | 0.672 | 0.516 | 0.674 | 0.542
PC-3 [JPC-3] | 0.912 | 0.781 | 0.745 | 0.733 | 0.775 | 0.849 | 0.73 | 0.718 | 0.726 | 0.626 | 0.919 | 0.775 | 0.68 | 0.723 | 0.714
PC-14 | 1.02 | 1.03 | 1.01 | 0.984 | 0.982 | 0.15 | 0.136 | 0.154 | 0.154 | 0.173 | 1.06 | 0.708 | 0.751 | 0.619 | 0.666
RERF-LC-KJ | 0.906 | 0.887 | 0.956 | 0.698 | 0.719 | 1.35 | 1.21 | 1.04 | 0.795 | 0.64 | 0.541 | 0.452 | 0.516 | 0.476 | 0.377
SK-LU-1 | 0.78 | 0.762 | 0.929 | 0.697 | 0.868 | 0.231 | 0.155 | 0.189 | 0.159 | 0.172 | 0.686 | 0.448 | 0.432 | 0.336 | 0.416
SK-MES-1 | 1.15 | 1.22 | 1.07 | 1.2 | 1.31 | 0.728 | 0.681 | 0.525 | 0.485 | 0.37 | 0.365 | 0.355 | 0.386 | 0.422 | 0.323
SW 1573 | 0.95 | 1.09 | 0.709 | 0.801 | 0.891 | 0.251 | 0.207 | 0.123 | 0.196 | 0.137 | 0.545 | 0.507 | 0.492 | 0.487 | 0.312
